Experimental data: patent US11000033B2, “Ketone or oxime compound, and herbicide” (NISSAN CHEMICAL CORPORATION, priority 2014, dated 2021)

How the values were obtained:
Assay type in all cases: in vivo
[1] = test system: Echinochloa oryzacola Vasing.; test: Test Example 2: herbicidal activity, application during weed generation in submerged conditions (symbol A); conditions: Table 23; application herbicide amount 320 g/ha; grade 0-5 by criteria of Test Example 1
In short: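 Steps: fill pots with alluvial soil; add water to 4 cm depth; co-sow the three weeds; grow at 25° C. to 30° C. under glass; at 1–2 leaves, dose the floodwater with diluted emulsion; rate damage visually after 3 weeks.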

[2] = test system: beet; test: Test Example 4: effect on crop by soil treatment (symbol f); conditions: application herbicide amount 320 g/ha
In short: (§1)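 Steps: fill box with sterilized diluvial soil; sow seed spot-like; cover with ~1.5 cm soil; grow in greenhouse (25° C. to 30° C.).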

[3] = test system: wheat; test: Test Example 5: effect on crop by foliage application, plastic box (symbol e); conditions: 320 g/ha, 3 weeks after application
In short: (§2)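 Box culture: sterile diluvial soil, seeds spot-sown, ~1.5 cm cover, raised under glass at 25–30° C.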

[4] = test system: Lolium multiflorum Lam.; test: Test Example 5: herbicidal effect by foliage application, plastic box (symbol K); conditions: 320 g/ha, 3 weeks after application
In short: (§3)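 Visual herbicidal score, taken three weeks post-application, of seedlings sprayed on the foliage with water-diluted emulsion at a predetermined amount; plants were 14 days old, greenhouse-raised at 25° C. to 30° C.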

[5] = test system: corn; test: Test Example 4: effect on crop by soil treatment (symbol c); conditions: application herbicide amount 320 g/ha
In short: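 Greenhouse culture at 25° C. to 30° C. followed sowing of seed in spots on sterilized diluvial soil with a soil cover close to 1.5 cm thick.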

[6] = test system: Digitaria ciliaris; test: Test Example 4: herbicidal effect by soil treatment (symbol F); conditions: application herbicide amount 320 g/ha
In short: (§4)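 Seeds were sown in sterilized diluvial soil, covered with about 1.5 cm of soil, and the soil surface was sprayed with a water-diluted emulsion of the compound at a predetermined rate. Plants grew in a greenhouse at 25° C. to 30° C.; effects were scored visually 3 weeks after application.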

[7] = test system: rice; test: Test Example 4: effect on crop by soil treatment (symbol b); conditions: application herbicide amount 320 g/ha
In short: as §1

[8] = test system: wheat; test: Test Example 4: effect on crop by soil treatment (symbol e); conditions: application herbicide amount 320 g/ha
In short: as §1

[9] = test system: Alopecurus myosuroides; test: Test Example 4: herbicidal effect by soil treatment (symbol J); conditions: application herbicide amount 320 g/ha
In short: as §4

[10] = test system: directly sowed rice plant; test: Test Example 3: effect on crop by foliage application, Wagner pot (symbol b); conditions: application herbicide amount 320 g/ha
In short: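 Wagner pot (1/10000 are), alluvial soil, submerged 0.1–0.5 cm; sown E. crus-galli var. crus-galli, L. chinensis, C. difformis, rice; greenhouse 25–30 °C.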

[11] = test system: Lolium multiflorum Lam.; test: Test Example 4: herbicidal effect by soil treatment (symbol K); conditions: application herbicide amount 320 g/ha
In short: as §4

[12] = test system: Alopecurus myosuroides; test: Test Example 5: herbicidal effect by foliage application, plastic box (symbol J); conditions: 320 g/ha, 3 weeks after application
In short: as §3

[13] = test system: Stellaria media; test: Test Example 4: herbicidal effect by soil treatment (symbol P); conditions: application herbicide amount 320 g/ha
In short: as §4

[14] = test system: rapeseed; test: Test Example 4: effect on crop by soil treatment (symbol g); conditions: application herbicide amount 320 g/ha
In short: as §1

[15] = test system: rice plant; test: Test Example 5: effect on crop by foliage application, plastic box (symbol b); conditions: 320 g/ha, 3 weeks after application
In short: as §2

Row | Compound | Herbicidal effect grade, A: Echinochloa oryzacola Vasing. [1] | Effect on crop grade, f: beet [2] | e: wheat, effect on crop (criteria of Test Example 1) [3] | K: Lolium multiflorum Lam., herbicidal effect (criteria of Test Example 1) [4] | Effect on crop grade, c: corn [5] | Herbicidal effect grade, F: Digitaria ciliaris [6] | Effect on crop grade, b: directly sowed rice plant [7] | Effect on crop grade, e: wheat [8] | Herbicidal effect grade, J: Alopecurus myosuroides [9] | effect on crop b (directly sowed rice plant), grade 0-5 [10] | Herbicidal effect grade, K: Lolium multiflorum Lam. [11] | J: Alopecurus myosuroides, herbicidal effect (criteria of Test Example 1) [12] | Herbicidal effect grade, P: Stellaria media [13] | Effect on crop grade, g: rapeseed [14] | also measured
1 | CON=C(C)CC1CC(O)=C(c2c(F)cc(Br)cc2OC)C1=O (centres unmarked) [6-096] | 4 (Herbicidal ratio of 70% or higher and lower than 90%) | 0 (Herbicidal ratio of 5% or lower (almost no effect)) | 3 (Herbicidal ratio of 40% or higher and lower than 70%) | 5 (Herbicidal ratio of 90% or more (almost completely withered)) | 3 (Herbicidal ratio of 40% or higher and lower than 70%) | 4 (Herbicidal ratio of 70% or higher and lower than 90%) | 5 (Herbicidal ratio of 90% or more (almost completely withered)) | 0 (Herbicidal ratio of 5% or lower (almost no effect)) | 3 (Herbicidal ratio of 40% or higher and lower than 70%) | 5 (Herbicidal ratio of 90% or more (almost completely withered)) | 5 (Herbicidal ratio of 90% or more (almost completely withered)) | 4 (Herbicidal ratio of 70% or higher and lower than 90%) | 0 (Herbicidal ratio of 5% or lower (almost no effect)) | 0 (Herbicidal ratio of 5% or lower (almost no effect)) | –
2 | CC(=O)CC1CC(O)=C(c2c(C)cc(Oc3ccc(C(F)(F)F)cn3)cc2C)C1=O (centres unmarked) [7-019] | – | 0 (Herbicidal ratio of 5% or lower (almost no effect)) | 0 (Herbicidal ratio of 5% or lower (almost no effect)) | 3 (Herbicidal ratio of 40% or higher and lower than 70%) | 0 (Herbicidal ratio of 5% or lower (almost no effect)) | 3 (Herbicidal ratio of 40% or higher and lower than 70%) | 0 (Herbicidal ratio of 5% or lower (almost no effect)) | 0 (Herbicidal ratio of 5% or lower (almost no effect)) | 0 (Herbicidal ratio of 5% or lower (almost no effect)) | 3 (Herbicidal ratio of 40% or higher and lower than 70%) | 0 (Herbicidal ratio of 5% or lower (almost no effect)) | 2 (Herbicidal ratio of 20% or higher and lower than 40%) | 0 (Herbicidal ratio of 5% or lower (almost no effect)) | 0 (Herbicidal ratio of 5% or lower (almost no effect)) | b: directly sowed rice plant, effect on crop (criteria of Test Example 1) [15]: 1 (Herbicidal ratio of 5% or higher and lower than 20%)
3 | CON=C(C)CC1CC(OC(=O)N2CCOCC2)=C(c2c(C)cc(-c3ccc(Cl)cc3F)cc2C)C1=O (centres unmarked) [6-089] | 5 (Herbicidal ratio of 90% or more (almost completely withered)) | 0 (Herbicidal ratio of 5% or lower (almost no effect)) | 4 (Herbicidal ratio of 70% or higher and lower than 90%) | 4 (Herbicidal ratio of 70% or higher and lower than 90%) | 0 (Herbicidal ratio of 5% or lower (almost no effect)) | 5 (Herbicidal ratio of 90% or more (almost completely withered)) | 0 (Herbicidal ratio of 5% or lower (almost no effect)) | 0 (Herbicidal ratio of 5% or lower (almost no effect)) | 2 (Herbicidal ratio of 20% or higher and lower than 40%) | 5 (Herbicidal ratio of 90% or more (almost completely withered)) | 3 (Herbicidal ratio of 40% or higher and lower than 70%) | 5 (Herbicidal ratio of 90% or more (almost completely withered)) | 0 (Herbicidal ratio of 5% or lower (almost no effect)) | 0 (Herbicidal ratio of 5% or lower (almost no effect)) | –
4 | CON=C(C)CC1CC(OC(=O)N2CCOCC2)=C(c2c(C)cc(-c3ccc(Cl)cc3)cc2OC)C1=O (centres unmarked) [6-078, 2-(4′-chloro-3-methoxy-5-methyl-[1,1′-biphenyl]-4-yl)-4-{2-(methoxyimino)propyl}-3-oxocyclopent-1-ene-1-yl morpholine-4-carboxylate] | 4 (Herbicidal ratio of 70% or higher and lower than 90%) | – | 5 (Herbicidal ratio of 90% or more (almost completely withered)) | 4 (Herbicidal ratio of 70% or higher and lower than 90%) | – | – | – | – | – | 5 (Herbicidal ratio of 90% or more (almost completely withered)) | – | 5 (Herbicidal ratio of 90% or more (almost completely withered)) | – | – | f: beet, effect on crop grade [2]: 0 (Herbicidal ratio of 5% or lower (almost no effect)); c: corn, effect on crop grade [5]: 0 (Herbicidal ratio of 5% or lower (almost no effect)); F: Digitaria ciliaris, herbicidal effect grade [6]: 5 (Herbicidal ratio of 90% or more (almost completely withered)); b: directly sowed rice plant, effect on crop grade [7]: 1 (Herbicidal ratio of 5% or higher and lower than 20%); e: wheat, effect on crop grade [8]: 0 (Herbicidal ratio of 5% or lower (almost no effect)); J: Alopecurus myosuroides, herbicidal effect grade [9]: 0 (Herbicidal ratio of 5% or lower (almost no effect)); K: Lolium multiflorum Lam., herbicidal effect grade [11]: 0 (Herbicidal ratio of 5% or lower (almost no effect)); P: Stellaria media, herbicidal effect grade [13]: 0 (Herbicidal ratio of 5% or lower (almost no effect)); g: rapeseed, effect on crop grade [14]: 0 (Herbicidal ratio of 5% or lower (almost no effect))
5 | C#CCON=C(C)CC1CC(O)=C(c2c(C)cc(C)cc2C)C1=O (centres unmarked) [1-019] | 5 (Herbicidal ratio of 90% or more (almost completely withered)) | – | – | – | – | – | – | – | – | 5 (Herbicidal ratio of 90% or more (almost completely withered)) | – | – | – | – | f (beet) effect on crop grade [2]: 0 (Herbicidal ratio of 5% or lower (almost no effect)); e: wheat, effect on crop grade [3]: 5 (Herbicidal ratio of 90% or more (almost completely withered)); K: Lolium multiflorum Lam., herbicidal effect grade [4]: 5 (Herbicidal ratio of 90% or more (almost completely withered)); c (corn) effect on crop grade [5]: 4 (Herbicidal ratio of 70% or higher and lower than 90%); b: directly sowed rice plant, effect on crop grade [15]: 5 (Herbicidal ratio of 90% or more (almost completely withered)); F (Digitaria ciliaris) herbicidal effect grade [6]: 5 (Herbicidal ratio of 90% or more (almost completely withered)); b (directly sowed rice plant) effect on crop grade [7]: 5 (Herbicidal ratio of 90% or more (almost completely withered)); e (wheat) effect on crop grade [8]: 3 (Herbicidal ratio of 40% or higher and lower than 70%); J (Alopecurus myosuroides) herbicidal effect grade [9]: 5 (Herbicidal ratio of 90% or more (almost completely withered)); K (Lolium multiflorum Lam.) herbicidal effect grade [11]: 5 (Herbicidal ratio of 90% or more (almost completely withered)); J: Alopecurus myosuroides, herbicidal effect grade [12]: 5 (Herbicidal ratio of 90% or more (almost completely withered)); g (rapeseed) effect on crop grade [14]: 4 (Herbicidal ratio of 70% or higher and lower than 90%)
6 | COc1cc(Br)cc(F)c1C1=C(O)CC(CC(C)=O)C1=O (centres unmarked) [7-029] | – | 0 (Herbicidal ratio of 5% or lower (almost no effect)) | 2 (Herbicidal ratio of 20% or higher and lower than 40%) | 5 (Herbicidal ratio of 90% or more (almost completely withered)) | 0 (Herbicidal ratio of 5% or lower (almost no effect)) | 0 (Herbicidal ratio of 5% or lower (almost no effect)) | 1 (Herbicidal ratio of 5% or higher and lower than 20%) | 0 (Herbicidal ratio of 5% or lower (almost no effect)) | 1 (Herbicidal ratio of 5% or higher and lower than 20%) | – | 3 (Herbicidal ratio of 40% or higher and lower than 70%) | 3 (Herbicidal ratio of 40% or higher and lower than 70%) | 0 (Herbicidal ratio of 5% or lower (almost no effect)) | 0 (Herbicidal ratio of 5% or lower (almost no effect)) | b (directly sowed rice plant) effect on crop grade ([10]; Table 24): 0 (Herbicidal ratio of 5% or lower (almost no effect))
